Key:
[1] = test system: model of cancer-induced bone pain; assay: Cancer-induced bone pain model (von Frey, rotarod paw lifts); assay type: in vivo; details: topical icilin
Source text: The model of cancer-induced bone pain was set up according to Medhurst et al., 2002 Pain 96: 129-40.

[2] = test system: rats with lysolecithin-induced demyelination of sciatic nerve; assay: Intrathecal icilin in lysolecithin demyelination-induced pain model (PWL, PWT); assay type: in vivo, rat; details: icilin 10 nmol, i.t.
Description: (§1) Pain models were generated under halothane anaesthesia (Zeneca, Cheshire, UK). For the chronic constriction injury (CCI) model of neuropathic pain, four ligatures were tied loosely to constrict the sciatic nerve at mid-thigh level (as described previously^[39]). An inflammatory pain model was generated by injecting 100 μl of Complete Freund's Adjuvant (CFA, Sigma-Aldrich Ltd) into the ventral surface of the right hindpaw^[39]. A model of peripheral demyelination-induced pain was produced by focal application of lysolecithin to the sciatic nerve^[40]. Peak behavioural sensitisation was observed post-surgically between days 10-16 for CCI, 1-3 for CFA, and 7-14 for lysolecithin, when pharmacological and electrophysiological experiments and tissue removal were conducted.
(§2) Thermal sensitivity was assessed by measuring paw withdrawal latency (PWL, s) in response to a noxious thermal stimulus (Hargreaves' thermal stimulator, Linton Instrumentation, Diss, UK) directed to the hindpaw mid-plantar glabrous surface. Mechanical sensitivity was recorded as the paw withdrawal threshold (PWT, mN/mm^2) to calibrated von Frey filaments (Stoelting, Ill., US), as previously described^[39]. Sensitivity to noxious cold was assessed by placing animals in a waterbath with an aluminium floor containing 1 cm deep 4° C. water and counting the time the paw was held suspended over a 20 s period.
(§3) The following drugs were applied intrathecally in a 50 μl volume of saline-based vehicle at 37° C.: icilin (2.5-200 μM in saline with 0.2% dimethylformamide, DMF), LY 341495 (100 μM in saline), UBP 1112 (200 μM in saline), 2R,4R-APDC ((2R, 4R)-4-aminopyrrolidine-2,4-dicarboxylate), 300 μM in saline), ACPT-III ((1R,3R,4S)-1-aminocyclopentane-1,3,4-tricarboxylic acid), 3 mM in saline), AP-4, ((L-(1)-2-amino-4-phosphonobutyric acid), 3 mM in saline), naloxone (0.5 mM in saline), NMDA (75 μM in saline) and ACPC (1-aminocyclopropanecarboxylic acid, 15 μM in saline) (Tocris Cookson, Bristol, UK), (−)-menthol (1R,2S,5R-(−)-menthol, 4 mM in saline), cinnamaldehyde (1.5 mM in saline) and Ruthenium Red (5 μM in saline) (Sigma-Aldrich Co. Ltd, UK) and allicin (0.5 mM in saline with 0.5% DMF) and diallyl disulphide (DADS, 1 mM in saline with 0.5% DMF) (LKT Laboratories Inc., St Paul, Minn., USA). […] Behavioural reflex testing commenced 15 min following injection to allow recovery from anaesthesia^[40,41,42] and continued every 5 min thereafter until readings returned to baseline levels (n=6 in each case). […]
(§4) The TRPM8 channel activators, icilin and (−)-menthol were tested in CCI and naïve animals. The effects of icilin were additionally assessed in animals with CFA-induced inflammation or with lysolecithin-induced demyelination. […]

[3] = test system: rats with Complete Freund's Adjuvant (CFA)-induced inflammation; assay: Intrathecal icilin in CFA inflammatory pain model (PWL, PWT); assay type: in vivo, rat; details: icilin 10 nmol, i.t.
Description: as §1, §2, §3, §4

## O=C1NC(c2cccc([N+](=O)[O-])c2)=CCN1c1ccccc1O [icilin, 1-(2′-hydroxyphenyl)-4-(3″-nitrophenyl)-1,2,3,6-tetrahydropyrimidin-2-one]
[1]
  analgesia in cancer-induced bone pain (mechanical allodynia, movement-evoked pain): causes analgesia
[2]
  Mean % reversal of mechanical sensitisation (after 15-30 mins): 63.3 ± 6.4%
  Mean % reversal of thermal sensitisation (after 15-30 mins): 69.2 ± 5.1%
  PWL (s) difference from control (+ icilin): 2.4 ± 1.2 s
  PWT (mN/mm^2) difference from control (+ icilin): 1102.5 ± 422.5 mN/mm^2
[3]
  Mean % reversal of mechanical sensitisation (after 15-30 mins): 42.6 ± 2.8%
  Mean % reversal of thermal sensitisation (after 15-30 mins): 66.0 ± 7.5%
  PWL (s) difference from control (+ icilin): 1.6 ± 1.6 s
  PWT (mN/mm^2) difference from control (+ icilin): 1707.6 ± 149.9 mN/mm^2
